# Data as given in patent US8288363B2, “Medicaments for anti-herpes virus treatments” (ASE & BIO, priority 2006, dated 2012).
# Tests used:
# [1] = tested on: HSV-1, HSV-1R, HSV-2 and HSV-2R; assay: Action on the viral adsorption, conclusion for the strains together; format: cell-based, herpes simplex virus
# Description: To determine whether PS3 has an effect on the viral adsorption, the procedure was as follows.
# Vero cells were seeded at a cell density of 3.5·10^4 cells/well of a 96-well microtitre plate in 100 μl of MEM medium containing 8% FCS 24 hours before the test. The viral suspensions of HSV-1, HSV-1R, HSV-2 and HSV-2R, defined by an MOI of 0.01 ID50/cell for a cell concentration of 350,000 cells/ml, were tested.
# On the day of the test, the cells were subjected to three different treatments designated A, B and C.
# According to treatment A, cells treated with 50 μl of PS3 or comparison product (acyclovir) of a given concentration were infected with 50 μl of one of the viral suspensions identified above for one hour at 4° C.
# The infected cells were then washed with 100 μl of saline buffer in order to remove the PS3 or the reference product as well as the viral particles which had not been adsorbed by the cells.
# After having filled each well with sufficient MEM medium containing 8% FCS to arrive at a volume of 200 μl, the cells were then placed in an oven at 37° C. for 72 hours. […]
# For these 3 treatments, the inhibitory effect of PS3 and of the reference product (expressed in EC50) on the adsorption of the four abovementioned viral strains after 72 hours was evaluated by measurement of the EC50 values in accordance with the method described in Example 3.
# [2] = tested on: HSV-1, HSV-1R, HSV-2 and HSV-2R; assay: Action on the viral penetration; format: cell-based, herpes simplex virus
# Description: To determine whether PS3 has an effect on the viral penetration, the procedure was as follows.
# Vero cells were seeded at a cell density of 3.5·10^4 cells/well of a microtitre plate in 100 μl of MEM medium containing 8% FCS.
# After 24 hours, the confluent cells were brought into contact with 50 μl of a viral suspension for 1 hour at 4° C.
# The cell carpet was then incubated with various concentrations of PS3 (0.125-1,250 μg/ml) or reference product, in this case acyclovir ([…]), at 37° C. in order to facilitate penetration of the viruses.
# After incubation times of 15, 30 and 60 minutes, the corresponding cells were washed with 100 μl of PBS and then treated for 1 minute with 0.5 mg/ml of proteinase K (Sigma) in solution in PBS in order to remove all the extracellular viruses which had not been adsorbed.
# This treatment was stopped by addition of 1 mM of phenylmethylsulphonyl fluoride (Sigma) in solution in PBS containing 3% FCS.
# The cells were then washed with 100 μl of PBS per well and cultured again at 37° C. in 200 μl of MEM medium supplemented with 8% FCS.
# Controls of the growth of the cells and of the viruses were run simultaneously. After incubation for 48 hours, the effect of PS3 and of acyclovir on the penetration of the virus was measured using the neutral red method.
# [3] = tested on: acyclovir-resistant strain HSV-1R; assay: Anti-herpes activity, viability of infected vero cells (neutral red); format: cell-based, herpes simplex virus 1; conditions: for Anti-herpes activity (conclusion in words) / EC50: HSV-1R; for Anti-herpes activity (conclusion in words): 48 and 72 hours; for EC50: MOI 0.01 ID50/cell
# Description: (§1) This method is based on the principle that living cells absorb neutral red, which is a vital stain. The optical density of the medium was measured at the maximum absorption wavelength of neutral red, that is to say 540 nm, using a spectrophotometer (SpectraCount™, microplate photometer, Packard). The optical density at 540 nm is proportional to the number of living cells in an infected culture (McLaren et al., Antiviral Research, 1983; 3: 223-234 and Langlois et al., Standardization, 1986, 14: 201-211).
# (§2) The effective concentration (EC 50%), that is to say the concentration of the sulphated polysaccharide which enables infection of 50% of the cells of a culture to be inhibited, was measured for each viral strain.
# (§3) The determination of the EC50 was carried out in 96-well microtitre plates in accordance with the following protocol. Vero cells are seeded at a cell density of 3.5·10^4 cells/well in 100 μl of MEM medium containing 8% FCS. For each viral suspension defined by its MOI: • the negative control column was filled with 100 μl of MEM medium with 8% FCS, • the virus control column was filled with 50 μl of viral suspension having the required MOI and with 50 μl of MEM medium with 8% FCS, • the PS3 control column was filled with 50 μl of PS3 having the desired concentration range or with 50 μl of acyclovir (Zovirax 0.05-5 μg/ml • finally, all the other columns were filled successively with 50 μl of PS3 having the required concentration range or with 50 μl of acyclovir (Zovirax 0.05-5 μg/ml) and with 50 μl of the viral suspension having the desired MOI.
# (§4) The EC50 corresponding to the concentration which enables the cytopathic effect of the virus to be reduced by 50% was calculated in accordance with the following formula: […]
# (§5) The anti-herpes activity of PS3 was evaluated and compared on each viral suspension of HSV-1, HSV-1R, HSV-2 and HSV-2R defined by an MOI of 0.01 ID50/cell for a cell concentration of 350,000 cells/ml, after incubation times of 48 and 72 hours.
# (§6) This series of experiments was carried out applying the protocol enabling the EC50 to be determined, as described in Example 3.
# (§7) The therapeutic indices (TI) of PS3, as well as three other reference products, that is to say acyclovir, dextran sulphate and phycarine, were determined in parallel for each viral strain.
# (§8) The therapeutic index (TI) represents the ratio between the maximum non-toxic dose (or a dose inducing a quantified toxicity) and the dose inducing a favourable pharmacological effect.
# HSV-1 = assay: as above; format: cell-based, herpes simplex virus 1; conditions: for EC50: MOI 0.01 ID50/cell
# Description: as §1, §2, §3, §4, §5, §6, §7, §8
# thrombin = assay: Specific antithrombin test using chromogenic substrates; format: biochemical
# Excerpt: The effect in the case of the thrombin time can be considered as being due to an inhibition of thrombin dependent on heparin cofactor II. On the basis of on the one hand the lower specific activity and on the other hand the profile dependent on the concentration and also on the other hand other investigations relating to the action mechanism, it is possible to consider that in the case of the laminarin sulphate PS3, the risk of bleeding is considerably lower than in the case of heparin.
# [4] = non-resistant strains HSV-1 and HSV-2
# [5] = strains HSV-1, HSV-2, HSV-1R, HSV-2R
Compound,"Effect on adsorption [1, 4]","Effect on penetration [2, 4]",Anti-herpes activity (conclusion in words) [3],Therapeutic index HSV-1R ([3]; incubation time 48 hours),Therapeutic index HSV-1R ([3]; incubation time 72 hours),Therapeutic index HSV-1 (HSV-1; incubation time 48 hours),Therapeutic index HSV-1 (HSV-1; incubation time 72 hours),"Effect on adsorption [1, 5]","Effect on penetration [2, 5]",antithrombin activity (thrombin),EC50 ([3]; after 48 hours of treatment),EC50 ([3]; after 72 hours of treatment),"EC50 (HSV-1; HSV-1, after 48 hours of treatment)","EC50 (HSV-1; HSV-1, after 72 hours of treatment)"
"Nc1nc2c(ncn2COCCO)c(=O)[nH]1 [Acyclovir, acyclovir, reference compound]",no,no,not effective,0,0,">4,902",">1,492",,,,,,,
sulphated laminarin [PS3],,,more effective than acyclovir,">1,157",>530,">1,761",>651,inhibitory effect on the 4 viral strains solely during treatment C and yes,no antiviral activity on penetration and no,nor an antithrombin activity,less than 2 μg/ml,less than 5 μg/ml,less than 2 μg/ml,less than 5 μg/ml
